Holding throughout (assay): ≥ marks a high value that may be exact or a test limit, other limits are often not marked, values filed in µg/mL are converted to µM
Experiment [1] deals with Staphylococcus aureus USA 300.
The next experiment has as its system Escherichia coli JW0013.
The subject of experiment [2] is Escherichia coli ATCC 25922.
In experiment [3] the test system is Pseudomonas aeruginosa PAO1.
Experiment [4] deals with Klebsiella pneumoniae ATCC 13883.
In experiment [5] the test system is Enterococcus faecalis ATCC 29212.
In another experiment the test system is Escherichia coli UB1005.
The test system of experiment [6] is Staphylococcus aureus ATCC 25923.
The subject of experiment [7] is Pseudomonas aeruginosa ATCC 27853.
Experiment [8] concerns Bacillus subtilis ATCC 6633.
Experiment [9] has as its system Staphylococcus epidermidis C621.
Experiment [10] deals with Escherichia coli KCTC 1682.
Experiment [11] concerns Staphylococcus epidermidis KCTC 1917.
Experiment [12] deals with Bacillus subtilis KCTC 3068.
The test system of experiment [13] is Pseudomonas aeruginosa KCTC 1637.
The test system of experiment [14] is Salmonella typhimurium KCTC 1926.
In experiment [15] the test system is Staphylococcus aureus KCTC 1621.

Converted amounts (≈) assume the structure as drawn. “And” between values parts separate entries of the source, which are not always exact repeats. Identical values can stand only once.

The term MIC denotes the smallest concentration in the dilution series that meets the test's criterion for growth inhibition. Lower therefore signals inhibition by little substance.

On to `CC[C@H](C)[C@H](NC(=O)[C@H](CCC(N)=O)NC(=O)[C@H](CCC(N)=O)NC(=O)[C@@H](NC(=O)[C@@H](NC(=O)[C@H](CCCN=C(N)N)NC(=O)[C@H](CCCCN)NC(=O)[C@H](Cc1ccccc1)NC(=O)CN)[C@@H](C)CC)C(C)C)C(=O)N[C@@H](CCC(N)=O)C(=O)N[C@@H](CC(=O)O)C(=O)N[C@@H](Cc1ccccc1)C(=O)N[C@@H](CC(C)C)C(=O)N[C@@H](CCCN=C(N)N)C(=O)N[C@@H](CC(N)=O)C(=O)N[C@@H](CC(C)C)C(=O)N[C@H](C(N)=O)C(C)C` [GFKRIVQQIQDFLRNLV], for which, in experiment [1], the MIC was 6.2 µM and 12.5 µM.
In turn, `CC[C@H](C)[C@H](NC(=O)[C@H](CCCN=C(N)N)NC(=O)[C@@H](N)CCCN=C(N)N)C(=O)N[C@@H](CCCCN)C(=O)N1CCC[C@H]1C(=O)N[C@@H](CCCN=C(N)N)C(=O)N1CCC[C@H]1C(=O)N1CCC[C@H]1C(=O)N[C@@H](CCCN=C(N)N)C(=O)N[C@@H](CC(C)C)C(=O)N1CCC[C@H]1C(=O)N[C@@H](CCCN=C(N)N)C(=O)N1CCC[C@H]1C(=O)N[C@@H](CCCN=C(N)N)C(=O)N1CCC[C@H]1C(=O)N[C@@H](CCCN=C(N)N)C(=O)O` [RRIKPRPPRLPRPRPR] came in with an MIC against Escherichia coli JW0013 of 0.24 µM (≈ 0.492 µg/mL).
With `CC[C@H](C)[C@H](NC(=O)[C@H](Cc1ccc(O)cc1)NC(=O)[C@@H](NC(=O)[C@@H]1CCCN1C(=O)[C@H](CCCCN)NC(=O)[C@H](CC(N)=O)NC(=O)[C@H](CC(N)=O)NC(=O)CN)C(C)C)C(=O)N1CCC[C@H]1C(=O)N[C@@H](CCC(N)=O)C(=O)N1CCC[C@H]1C(=O)N[C@@H](CCCN=C(N)N)C(=O)N1CCC[C@H]1C(=O)N1CCC[C@H]1C(=O)N[C@@H](Cc1cnc[nH]1)C(=O)N1CCC[C@H]1C(=O)N[C@@H](CCCN=C(N)N)C(=O)N[C@@H](CC(C)C)C(=O)O` [GNNKPVYIPQPRPPHPRL], in the experiment with Escherichia coli JW0013, the MIC is 0.3 µM (≈ 0.624 µg/mL).
Compound `CC[C@H](C)[C@H](NC(=O)[C@H](CCCN=C(N)N)NC(=O)[C@H](CCCN=C(N)N)NC(=O)[C@@H]1CCCN1C(=O)[C@@H]1CCCN1C(=O)[C@H](CCCN=C(N)N)NC(=O)[C@H](CCCN=C(N)N)NC(=O)[C@H](CCCN=C(N)N)NC(=O)[C@@H]1CCCN1C(=O)[C@H](CCCN=C(N)N)NC(=O)[C@H](Cc1ccc(O)cc1)NC(=O)[C@@H]1CCCN1C(=O)[C@H](CCCN=C(N)N)NC(=O)[C@H](CCCCN)NC(=O)[C@H](CC(=O)O)NC(=O)[C@@H](N)C(C)C)C(=O)N[C@@H](Cc1ccc(O)cc1)C(=O)N[C@@H](CC(N)=O)C(=O)N[C@@H](CCCN=C(N)N)C(N)=O` [VDKRPYRPRRRPPRRIYNR] came in with an MIC against Escherichia coli JW0013 of 0.941 µM (≈ 2.4 µg/mL).
Regarding `CC(C)C[C@H](NC(=O)[C@H](C)NC(=O)[C@H](CCCCN)NC(=O)CNC(=O)[C@H](CC(C)C)NC(=O)[C@H](C)NC(=O)[C@H](CCCCN)NC(=O)[C@H](CC(C)C)NC(=O)[C@H](C)NC(=O)[C@H](CO)NC(=O)[C@H](CC(C)C)NC(=O)[C@H](CC(C)C)NC(=O)CN)C(N)=O` [GLLSALKALGKAL], the MIC in [2] is 25 µM (≈ 31.3 µg/mL); in [3] it was over 25 µM; in experiment [1], 25 µM (≈ 31.3 µg/mL); in experiment [4] it was 25 µM (≈ 31.3 µg/mL).
In the experiment on Escherichia coli JW0013, `CC[C@H](C)[C@H](NC(=O)[C@H](CCCN=C(N)N)NC(=O)[C@H](CCCN=C(N)N)NC(=O)[C@@H]1CCCN1C(=O)[C@@H]1CCCN1C(=O)[C@H](CCCN=C(N)N)NC(=O)[C@@H]1CCCN1C(=O)[C@H](CCCN=C(N)N)NC(=O)[C@@H]1CCCN1C(=O)[C@H](CC(C)C)NC(=O)[C@H](Cc1ccc(O)cc1)NC(=O)[C@@H]1CCCN1C(=O)[C@@H]1CCCN1C(=O)[C@H](CCCCN)NC(=O)[C@H](CC(=O)O)NC(=O)[C@@H](N)CCC(N)=O)C(=O)N[C@@H](Cc1ccc(O)cc1)C(=O)N[C@@H](CC(N)=O)C(=O)N[C@@H](CCCN=C(N)N)C(N)=O` [QDKPPYLPRPRPPRRIYNR] yielded an MIC of 1.98 µM (≈ 4.8 µg/mL).
Take `C[C@H](NC(=O)[C@H](C)NC(=O)[C@H](Cc1c[nH]c2ccccc12)NC(=O)[C@H](C)NC(=O)[C@H](C)NC(=O)[C@H](Cc1c[nH]c2ccccc12)NC(=O)[C@H](C)NC(=O)[C@H](C)NC(=O)[C@H](Cc1c[nH]c2ccccc12)NC(=O)[C@H](C)NC(=O)[C@H](C)NC(=O)[C@H](CCCCN)NC(=O)[C@H](CCCCN)NC(=O)[C@H](CCCCN)NC(=O)[C@H](CCCCN)NC(=O)[C@H](CCCCN)NC(=O)[C@@H](N)CCCCN)C(N)=O` [KKKKKKAAWAAWAAWAA]: the minimum inhibitory concentration (MIC) was over 32 µM in experiment [5]; 8 µM (≈ 15.3 µg/mL) in experiment [2]; 1 µM (≈ 1.91 µg/mL) in the experiment with Escherichia coli UB1005; 32 µM (≈ 61.2 µg/mL) in [6]; 8 µM (≈ 15.3 µg/mL) in [7]; 4 µM (≈ 7.65 µg/mL) in experiment [8]. The compound also returned an MIC in [9] of 8 µM (≈ 15.3 µg/mL).
For `CC[C@H](C)[C@H](NC(=O)[C@H](CC(C)C)NC(=O)[C@@H](N)CC(C)C)C(=O)N[C@H](C(=O)N[C@@H](CC(C)C)C(=O)N[C@@H](CCCN=C(N)N)C(=O)N[C@@H](CCCN=C(N)N)C(=O)N[C@@H](CCCN=C(N)N)C(=O)N[C@@H](Cc1c[nH]c2ccccc12)C(=O)N[C@@H](CCCN=C(N)N)C(=O)N[C@@H](CCCCN)C(=O)N[C@@H](CCC(N)=O)C(=O)N[C@@H](C)C(=O)N[C@@H](CCCCN)C(=O)N[C@@H](C)C(=O)N[C@@H](CCCCN)C(=O)N[C@@H](CO)C(=O)N[C@@H](CCCCN)C(N)=O)[C@@H](C)CC` [LLIILRRRWRKQAKAKSK], the MIC in experiment [10] was 8 µM (≈ 18.1 µg/mL); in experiment [11] it was 8 µM (≈ 18.1 µg/mL); in experiment [12], 4 µM (≈ 9.06 µg/mL); in experiment [13], 8 µM (≈ 18.1 µg/mL); in experiment [14], 4 µM (≈ 9.06 µg/mL); in [15], 4 µM (≈ 9.06 µg/mL).
The compound `CC[C@H](C)[C@H](NC(=O)[C@H](CCCN=C(N)N)NC(=O)[C@@H](N)CCCN=C(N)N)C(=O)N[C@@H](CCCN=C(N)N)C(=O)N1CCC[C@H]1C(=O)N[C@@H](CCCN=C(N)N)C(=O)N[C@@H](CCCN=C(N)N)C(=O)N1CCC[C@H]1C(=O)N[C@@H](CCCN=C(N)N)C(=O)N[C@@H](CC(C)C)C(=O)N1CCC[C@H]1C(=O)N[C@@H](CCCN=C(N)N)C(=O)N1CCC[C@H]1C(=O)N[C@@H](CCCN=C(N)N)C(=O)N1CCC[C@H]1C(=O)N[C@@H](CCCN=C(N)N)C(=O)O` [RRIRPRRPRLPRPRPR] registered an MIC in the experiment on Escherichia coli JW0013 of 0.3 µM (≈ 0.641 µg/mL).
For `CC[C@H](C)[C@H](NC(=O)[C@H](CCCN=C(N)N)NC(=O)[C@H](CCCN=C(N)N)NC(=O)[C@@H]1CCCN1C(=O)[C@@H]1CCCN1C(=O)[C@H](CCCN=C(N)N)NC(=O)[C@@H]1CCCN1C(=O)[C@@H](NC(=O)[C@@H]1CCCN1C(=O)[C@H](CC(C)C)NC(=O)[C@H](Cc1ccc(O)cc1)NC(=O)[C@@H]1CCCN1C(=O)[C@@H]1CCCN1C(=O)[C@H](CCCCN)NC(=O)[C@H](CC(=O)O)NC(=O)[C@@H](N)C(C)C)[C@@H](C)O)C(=O)N[C@@H](Cc1ccc(O)cc1)C(=O)N[C@@H](CC(N)=O)C(=O)N[C@@H](CCCN=C(N)N)C(N)=O` [VDKPPYLPTPRPPRRIYNR], the MIC with Escherichia coli JW0013 stood at 2.06 µM (≈ 4.8 µg/mL).
On the same count and under the same terms, to `CC[C@H](C)[C@H](NC(=O)[C@H](CCCN=C(N)N)NC(=O)[C@H](CCCN=C(N)N)NC(=O)[C@@H]1CCCN1C(=O)[C@@H]1CCCN1C(=O)[C@H](CCCN=C(N)N)NC(=O)[C@H](Cc1c[nH]c2ccccc12)NC(=O)[C@H](CCCN=C(N)N)NC(=O)[C@@H]1CCCN1C(=O)[C@H](CC(C)C)NC(=O)[C@H](Cc1ccc(O)cc1)NC(=O)[C@@H]1CCCN1C(=O)[C@@H]1CCCN1C(=O)[C@H](CCCCN)NC(=O)[C@H](CC(=O)O)NC(=O)[C@@H](N)C(C)C)C(=O)N[C@@H](Cc1ccc(O)cc1)C(=O)N[C@@H](CC(N)=O)C(=O)N[C@@H](CCCN=C(N)N)C(N)=O` [VDKPPYLPRWRPPRRIYNR] belongs 1.94 µM (≈ 4.8 µg/mL).

Source of the values: DBAASP.
